Assays:
[1] = molecular target: human D3 dopamine receptor (Homo sapiens (Human), UniProt P35462); assay: Radioligand binding (125I-IABN competition), D3; details: 125I-IABN competition, HEK cell membranes expressing human D3
Protocol: The affinities of the target compounds were determined using radioligand binding experiments. […] Competition curves were modeled for a single site. Data from competition dose-response curves were analyzed using Tablecurve program (Jandel). IC50 values were converted to equilibrium dissociation constants (Ki values) using the Cheng and Prusoff correction.

D3R [2] = molecular target: T1, D3R (Homo sapiens (Human), UniProt P35462); assay: β-Arrestin Recruitment Assay, U2OS DRD3; format: cell-based; details: antagonist vs EC80 8 nM PD128907, U2OS DRD3 cells; read-out: D3 IC50
Protocol: Antagonist potency of the compounds against agonist induced recruitment of β-arrestin by D3R and D2LR was measured using DiscoverRx PathHunter eXpress kits. […] After incubation at 37° C. for 90 min, the DiscoveRx detection reagent was added, the plates were incubated at room temperature for 60 min and the luminescence was measured on a Synergy 4 plate reader (BioTek). The data were plotted and the agonist EC80 values were calculated using GraphPad Prism software. For antagonist activity, the cells were plated as described above and treated with multiple concentrations (starting from 500 nM, half log dilution, 10 dose points) of the test compounds in Plating Reagent with 0.1% DMSO.

human D2L receptors = human D2L receptors (Homo sapiens (Human), UniProt P14416); assay: [35S]GTPγS Binding Assay, CHO D2 membranes; format: biochemical; details: antagonist vs dopamine; Ke = functional Ki; read-out: CHO-hD2 Ke
Protocol: Chinese hamster ovary (CHO) cells expressing human D2L and D3 receptors served as the source for membrane fractions which were washed and resuspended with assay buffer containing Mg^2+, Na^+, EGTA, and bovine serum albumin. The GTPγS binding assays were performed in a final volume of 0.5 mL for CHO D2 and 1 mL for CHO D3 containing test drug or dopamine (1 mM for D2 cells, and 100 μM for D3 cells) as indicator of binding plateau, [^35S]GTPγS (0.11 nM for CHO D2 and 0.07 nM for CHO D3, 1,250 Ci/mmole, Perkin Elmer, Boston, Mass. 02118); and cell membrane suspension (in assay buffer and GDP for final concentration of 3 μM for CHO D2 and 6 μM for CHO D3). […] The plateau binding (maximal binding stimulation) with test compound was expressed as percent of maximal binding observed with the full agonist dopamine (% Emax). Antagonist activity was assessed by testing a fixed concentration of the test compound and varying concentration of the agonist, dopamine (0.001-100 μM for CHO D2 and 0.1 nM-10 uM for CHO D3). Ke is the functional Ki (equilibrium dissociation constant) of an antagonist and is calculated according to the equation: [Test Compound]/(EC50-2/EC50-1−1), where EC50-2 is the EC50 value in the presence of the test compound and EC50-1 is the value in the absence of the test compound.

D3R [3] = molecular target: T1, D3R; assay: [35S]GTPγS Binding Assay, CHO D3 membranes; format: biochemical; details: antagonist vs dopamine; Ke = functional Ki; read-out: CHO-hD3 Ke
Protocol: Chinese hamster ovary (CHO) cells expressing human D2L and D3 receptors served as the source for membrane fractions which were washed and resuspended with assay buffer containing Mg^2+, Na^+, EGTA, and bovine serum albumin. […] After preincubation with test compounds, cell membranes and GDP for 15 minutes at 30° C. in a shaking water bath, [^35S]GTPγS was added and incubation proceeded for an additional 45 minutes. Cell membranes were harvested on Brandel GF/B filtermats with a 24-pin Brandel harvester (Biomedical Research & Development Laboratories, Inc., Gaithersburg, Md.). […] Antagonist activity was assessed by testing a fixed concentration of the test compound and varying concentration of the agonist, dopamine (0.001-100 μM for CHO D2 and 0.1 nM-10 uM for CHO D3).

Long Evans rats = assay: Cocaine self-administration under PR schedule of reinforcement; format: in vivo, rat; details: 3.75, 7.5 or 15 mg/kg intraperitoneally 10 minutes prior to session; compared to vehicle, ps<0.05; cocaine 0.375, 0.75, […]
Protocol: These studies were performed using Long Evans rats using standard protocols (Quinlan M. G. et al. Psychopharmacol. 2004, 175, 53-59; Ranaldi, R. et al. Behav. Pharmacol. 2011, 22, 347-353). Cocaine self-administration sessions were conducted in sixteen operant chambers; eight measuring 30×22×27 cm (l×w×h) and the other eight measuring 26×26×30 cm (l×w×h). Each chamber was situated inside a sound-attenuating box and was equipped with two retractable levers, a white light above each lever, and a tether. Polyethylene tubing, covered by the tether, connected the animal, through a fluid swivel, to a syringe in a syringe pump (Razel, 3.33 rpm). Cocaine was dissolved in 0.9% saline to achieve doses of 0.375, 0.75 and 1.5 mg/kg/injection. […] Each animal was tested with one dose of the D3 antagonist, randomly determined, at as many of the three cocaine doses as possible. After a particular test the animal's cocaine dose was changed to another one (randomly determined) and its baseline BP on the new dose was established. BP during the test session was expressed as the percentage of the average BP obtained during the last three baseline sessions. Percentage of baseline BP and final ratio (i.e. the number of lever presses required for the BP infusion) were analyzed using separate two-way analyses of variance (ANOVAs) with dose of 113 and dose of cocaine as between-groups factors. […]

T1 sequence (P35462 whole entry): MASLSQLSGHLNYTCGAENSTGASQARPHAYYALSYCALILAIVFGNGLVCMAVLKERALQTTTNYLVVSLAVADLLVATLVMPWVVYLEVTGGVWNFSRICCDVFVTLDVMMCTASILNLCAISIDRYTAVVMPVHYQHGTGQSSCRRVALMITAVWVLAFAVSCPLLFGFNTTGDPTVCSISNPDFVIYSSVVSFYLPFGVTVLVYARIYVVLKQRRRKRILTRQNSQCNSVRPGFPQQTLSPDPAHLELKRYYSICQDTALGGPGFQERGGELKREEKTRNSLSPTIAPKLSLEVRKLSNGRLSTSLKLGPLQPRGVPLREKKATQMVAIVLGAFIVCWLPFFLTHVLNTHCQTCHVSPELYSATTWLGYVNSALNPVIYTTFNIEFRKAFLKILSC
Chain of human D2L receptors (P14416 whole entry): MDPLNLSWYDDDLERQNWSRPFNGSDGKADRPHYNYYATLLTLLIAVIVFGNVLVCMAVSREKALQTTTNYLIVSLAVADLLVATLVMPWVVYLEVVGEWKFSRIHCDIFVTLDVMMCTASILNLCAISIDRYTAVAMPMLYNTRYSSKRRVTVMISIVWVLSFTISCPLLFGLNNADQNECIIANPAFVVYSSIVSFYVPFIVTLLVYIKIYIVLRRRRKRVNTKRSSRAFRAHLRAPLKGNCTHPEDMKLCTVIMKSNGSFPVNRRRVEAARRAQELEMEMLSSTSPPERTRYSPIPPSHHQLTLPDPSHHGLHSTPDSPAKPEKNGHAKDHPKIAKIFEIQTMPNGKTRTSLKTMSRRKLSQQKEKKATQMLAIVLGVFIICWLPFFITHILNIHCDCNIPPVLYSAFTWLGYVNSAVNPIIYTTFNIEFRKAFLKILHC
Chain of human D3 dopamine receptor (P35462 whole entry): as the sequence (P35462 whole entry) above

Structure (SMILES): CC(C)(C)c1nc(N2CCN(CCCCNC(=O)c3cn4ccccc4n3)CC2)cc(C(F)(F)F)n1 [Compound 113, N-(4-(4-(2-(tert-Butyl)-6-(trifluoromethyl)pyrimidin-4-yl)piperazin-1-yl)butyl)imidazo[1,2-a]pyridine-2-carboxamide]
- Ki [1]: 4.2 ± 0.6 nM
- IC50 (D3R [2]): 0.56 ± 0.12 nM
- Ki (human D2L receptors): 111 ± 25 nM
- Ki (D3R [3]): 1.32 ± 0.35 nM
- percentage of baseline BPs for cocaine under PR schedule (Long Evans rats): significant reductions in the percentage of baseline BPs

Source: US9598387B2 (Southern Research Institute, priority 2012, dated 2017)
